Data from US9944610B2, “Preparation and method for use in the treatment of respiratory diseases” (Universite Laval, priority 2013, dated 2018).

Columns and labels:
[1] = ASM-024 capsule stability study, NGI testing of fine particle mass (FPM); type: physicochemical; conditions: eight weeks at 40° C./75% RH
Experimental: (§1) For method development using the NGI method, size three HPMC capsules were hand filled with forty milligrams of micronized ASM-024. Three capsules were tested according to manufacturer's instructions using the following conditions: • Cup coating agent: 3% PEG400 with 0.1% F68 in acetone • Testing flow rate: 60 LPM • Testing volume: 4 L (4 second actuation) • Device: Miat Monodose Inhaler (standard resistance) • Sample diluent: 70% MeOH: 30% H2O (v/v) • Dilutions • Device—50 ml • Throat—50 ml • Pre-separator—100 ml • Stage 1—MOC—10 ml • Filter—50 ml
A two month study was performed at accelerated conditions with testing at two weeks, four weeks and eight weeks. Hand filled 40 mg capsules were packed in foil pouches with a 10 g desiccant pouch and heat sealed. Hand filled 40 mg capsules were also packed in foil pouches and heat sealed without a desiccant pouch. All heat seals were hand checked to ensure seal integrity. Pouches were placed on stability at 40° C./75% RH. NGI testing of the capsules stored without desiccant were conducted over the eight week study.

LTD4-induced contraction = experiment: Relaxant effect on LTD4-induced contraction
[2] = Particle size analysis (PSD), Malvern Mastersizer; type: physicochemical
Experimental: A 2 g sample of anhydrous crystalline ASM-024 was taken and fed through the Sturtevant Qualification Micronizer. The mill has a 2 inch chamber, and was operated at 80 psig grinding pressure and 90 psig feed pressure. Milled API was recovered from the exhaust filter sock and physically characterized.
Particle size analysis was performed using a Malvern Mastersizer with a Small Sample Presentation Unit. The dispersant used was ethyl acetate with 2 g of SPAN 85 per liter. Samples were prepared by sonicating 5 mg of sample in 2 ml of dispersant, the sample was then added dropwise to achieve 20% obscuration.
Magnesium stearate was blended with un-milled ASM-024 in two gram lots. Approximately one gram of ASM-024 was weighed into a 28 ml vial. The appropriate mass of magnesium stearate was then weighed on top of the API and the weight completed to two grams with ASM-024. The materials were blended using a Turbula T2F mixer at 101 rpm for ten minutes. The blended material was passed through the Sturtevant Qualification Micronizer and recovered from the filter sock.

[3] = NGI aerosol testing, mass retained in device and capsule; type: physicochemical; conditions: 40 mg capsule fill weight, standard and high resistance Miat Monodose inhalers
Experimental: as §1
Aerosol performance and stability was assessed. Milled API was hand filled into size 3 HPMC capsules and size 3 gelatin capsules (40 mg capsule fill weight). NGI testing was performed in duplicate using standard resistance and high resistance Miat Monodose inhalers. […] The high resistance device has provided an increased FPM of ASM-024 from both HPMC and gelatin capsules.

[4] = PSD of ASM-024 prior to micronization
[5] = co-milled with 0.2 % w/w magnesium stearate
[6] = co-milled with 0.5 % w/w magnesium stearate
[7] = co-milled with 1.0 % w/w magnesium stearate
[8] = co-milled with 2.0 % w/w magnesium stearate
[9] = milled, 0.0 % magnesium stearate

decrease in FPM ([1]; 40 mg capsules in foil pouches with 10 g desiccant pouch): ~5.7%
decrease in FPM ([1]; 40 mg capsules in foil pouches without desiccant): 10.9%
d10 [2, 4]: 13.92 μm
d50 [2, 4]: 41.67 μm
d90 [2, 4]: 91.89 μm
d10 ([2]; after one pass in jet air mill): 0.78 μm
d50 ([2]; after one pass in jet air mill): 2.10 μm
d90 ([2]; after one pass in jet air mill): 4.70 μm
d10 [2, 5]: 0.89 µm
d50 [2, 5]: 1.74 µm
d90 [2, 5]: 3.33 µm
d10 [2, 6]: 0.89 µm
d50 [2, 6]: 1.86 µm
d90 [2, 6]: 3.94 µm
d10 [2, 7]: 0.9 µm
d50 [2, 7]: 1.7 µm
d90 [2, 7]: 3.17 µm
d10 [2, 8]: 0.91 µm
d50 [2, 8]: 1.69 µm
d90 [2, 8]: 3.11 µm
d10 [2, 9]: 0.97 µm
d50 [2, 9]: 1.95 µm
d90 [2, 9]: 3.8 µm
mass of ASM-024 retained in the device and capsule after NGI testing [3]: less than 20 mg
Compound: CC[N+]1(CC)CCCN(c2ccccc2)CC1 [ASM-024]
relaxant effect on LTD4-induced contraction (LTD4-induced contraction): no relaxant effect
